In patent publication US6486326B2, “iso-CBI and iso-CI analogs of CC-1065 duocarmycins” (The Scripps Research Institute, priority 1997, dated 2002):

Tests used:
w836 DNA (146 bp) = experiment: DNA alkylation selectivity and efficiency, thermally-induced strand cleavage of w836 DNA; assay type: biochemical
Experimental: FIG. 6 illustsrates thermally-induced strand cleavage of w836 DNA (146 bp, nucleotide nos. 5189-91): DNA-agent incubation for 24 h ((−)-iso-CBI-TMI) at 25° C., removal of unbound agent and 30 min of thermolysis (100° C.), followed by denaturing 8% PAGE and autoradiography; lane 1, control DNA; lanes 2-5, Sanger G, C, A, and T sequencing reactions; lanes 6-8 (−)-iso-CBI-TMI ([…] to 1×10^−5 M); lanes 9-10, (+)-duocarmycin SA (1×10^−5 to 1×10^−6 M); lanes 11-12, (+)-iso-CBI-TMI (1×10^−2 and 1×10^−3).
DNA Alkylation Selectivity and Efficiency: The DNA alkylation properties of the agents were examined within w794 and w836 duplex DNA for which comparative results are available for related agents. (Boger, D. L., et al., J. Am. Chem. Soc. 1994, 116, 11335; Boger, D. L., et al., J. Am. Chem. Soc. 1994, 116, 6461; and Boger, D. L., et al., J. Am. Chem. Soc. 1995, 117, 11647) The alkylation site identification and the assessment of the relative selectivity among the available sites were obtained by thermally-induced strand cleavage of the singly 5′ end-labeled duplex DNA after exposure to the agents. […]

[1] = tested on: w794 DNA (SV40 DNA segment, 144 bp); details: from earlier studies (refs 10, 11); cited from earlier work

COc1cc2cc(C(=O)N3CC4CC45C(=O)c4ccccc4C=C35)[nH]c2c(OC)c1OC (single isomer, unassigned; (+)) [(+)-iso-CBI-TMI, 2-[(5,6,7-Trimethoxyindol-2-yl)carbonyl]-1,2,9,9a-tetrahydrocyclopropa[c]benzo[f]indol-8-one]
DNA alkylation sites / selectivity (w836 DNA (146 bp)): selectivity identical to that of ent-(-duocarmycin SA

COC(=O)[C@]1(C)NC2=C(C1=O)[C@@]13C[C@@H]1CN(C(=O)c1cc4cc(OC)c(OC)c(OC)c4[nH]1)C3=CC2=O [duocarmycin A]
DNA alkylation efficiency, less efficient than duocarmycin SA [1]: ca. 10 ×
